Measurements taken from PubChem BioAssay (NCI).
Several values for one entry are separate records, joined by “and”; a condition that tells them apart may be missing. Equal values may be shown once.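 Briefly, cells in 96-well plates were exposed to five compound concentrations for 48 h, and endpoints were estimated by linear interpolation. At the GI50, growth is halved. TGI denotes the concentration required for complete inhibition of growth.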

How the values were obtained:
Assay in all cases: growth of human tumour cells (NCI), 48 h
NCI-H226 lung = test system: NCI-H226 lung
K-562 leukemia = test system: K-562 leukemia
SK-MEL-5 melanoma = test system: SK-MEL-5 melanoma
UACC-62 melanoma = test system: UACC-62 melanoma
A549 NSCLC = test system: A549 NSCLC
HT29 colon = test system: HT29 colon
COLO 205 colon = test system: COLO 205 colon
HOP-92 NSCLC = test system: HOP-92 NSCLC
MDA-MB-231 breast = test system: MDA-MB-231 breast
HS 578T breast = test system: HS 578T breast

Row | SMILES | TGI (NCI-H226 lung) [µM] | TGI (K-562 leukemia) [µM] | TGI (SK-MEL-5 melanoma) | TGI (UACC-62 melanoma) [µM] | TGI (A549 NSCLC) [µM] | TGI (HT29 colon) [µM] | TGI (COLO 205 colon) [µM] | TGI (HOP-92 NSCLC) | TGI (MDA-MB-231 breast) [µM] | TGI (HS 578T breast) [µM] | GI50 (HOP-92 NSCLC) [µM] | GI50 (NCI-H226 lung) [µM] | GI50 (SK-MEL-5 melanoma) [µM] | GI50 (UACC-62 melanoma) | GI50 (MDA-MB-231 breast) [µM] | GI50 (HT29 colon) [µM] | GI50 (HS 578T breast) [µM] | GI50 (COLO 205 colon) [µM]
1 | CCOC(=O)CNC(=O)c1[nH]cnc1/N=N/N(C)C | > 100 | > 100 | > 100 µM | > 100 | > 100 | > 100 | > 100 | – | – | – | – | – | – | – | – | – | – | –
2 | CC(=O)O[C@H]1CC[C@@H](OC(C)=O)[C@H]2[C@H](O)[C@H](O)[C@@H]1n1c(=O)n(-c3ccccc3)c(=O)n12 | > 100 | > 100 | > 100 µM | > 100 | > 100 | > 100 | > 100 | > 100 µM | > 100 | > 100 | – | – | – | – | – | – | – | –
3 | Cc1ccc(S(=O)(=O)OCCN(CCOS(=O)(=O)c2ccc(C)cc2)c2ccc(C=O)cc2)cc1 | – | > 100 | > 100 µM | 39.5 | > 100 | > 100 | > 100 | 75.3 µM | > 100 | > 100 | – | – | – | – | – | – | – | –
4 | BrC1(c2ccccc2)C[n+]2c(-c3ccccc3)cc(-c3ccccc3)cc2-c2ccccc21 (centres undefined) | 12.2 | 1.48 | 0.366 µM | – | 9.77 | 3.46 | 0.318 | 3.7 µM | 1.63 | 0.872 | – | – | – | – | – | – | – | –
5 | NCCCNc1nc2ccccc2c2c(=O)c3cc(Cl)ccc3sc12 | 74.2 | – | 16.2 µM | 3.16 | – | 3.18 | 3.1 | 3.35 µM | 2.69 | 5.24 | 1.28 | 8.54 | 3.71 | 1.67 µM | 1.34 | 1.72 | 2.01 | 1.63
6 | CCCCCCCCCCCCOCC(COP(=O)(O)OCCN=[N+]=[N-])OC(=O)CCCCCCCCCCC (centres undefined) | – | > 100 | > 100 µM | > 100 | > 100 | > 100 | > 100 | > 100 µM | > 100 | – | – | – | – | – | – | – | – | –
7 | NC(=O)CSc1nc2ccccc2c(=O)n1N | > 100 | > 100 | > 100 µM | > 100 | > 100 | > 100 | > 100 | > 100 µM | > 100 | > 100 | – | – | – | – | – | – | – | –
8 | C/C(CCN(C)C)=N/O | 63.9 | 6.97 | 24.3 µM | 24 | 17.4 | 10.3 | 15.8 | 25.5 µM | – | – | – | – | – | – | – | – | – | –
9 | CC(C)CNP(=O)(NCC(C)C)Oc1ccc(CC(NC(=O)OCc2ccccc2)C(=O)OCc2ccccc2)cc1 (centres undefined) | > 100 | 59.4 | 45.8 µM | 34.1 | > 100 | 33.4 | 35.4 | > 100 µM | 34.9 | 85.8 | – | – | – | – | – | – | – | –
10 | COC(=O)[C@H](C)NC(=O)[C@H](NS(=O)(=O)c1nc2ccccc2s1)c1ccccc1 | 30.6 | > 100 | 40.5 µM | 28.3 | – | > 100 | 25.9 | 27.4 µM | 64.6 | 36.5 | – | – | – | – | – | – | – | –
11 | CC(C)(C)C(=O)c1c(O)c2ccccc2c2ccccc2c1=O | > 100 | – | > 100 µM | > 100 | > 100 | > 100 | > 100 | > 100 µM | > 100 | > 100 | – | – | – | – | – | – | – | –
12 | COc1ccc(/C(C=O)=C(\Cl)c2ccc(OC)c(OC)c2)cc1 | > 100 | > 100 | > 100 µM | > 100 | > 100 | > 100 | – | – | – | – | – | – | – | – | – | – | – | –
13 | C=CCOC(C)(C)C1=CCC(C)CC1 (centres undefined) | – | – | > 100 µM | > 100 | > 100 | > 100 | > 100 | > 100 µM | – | > 100 | – | – | – | – | – | – | – | –
14 | Cc1cc2nc(N3C(=O)/C(=C/Cc4ccco4)N=C3c3ccccc3)sc2cc1C | – | > 100 | > 100 µM | > 100 | > 100 | 76.5 | > 100 | 60.5 µM | > 100 | > 100 | – | – | – | – | – | – | – | –
15 | CCCCCCCCCCCCCCCCNc1nc(=O)n(C2OC(C)C(O)C2O)cc1F (centres undefined) | 40.6 | – | 43.4 µM | 29 | 48 | 31.2 | 58.7 | 45.7 µM | 42 | 56.3 | – | – | – | – | – | – | – | –
16 | Cn1c2c(c3c(=O)[nH]ncc31)Cc1ccccc1-2 | 61.9 | > 100 | 34.9 µM | – | > 100 | > 100 | 54.3 | 69.4 µM | 98.2 | > 100 | – | – | – | – | – | – | – | –
17 | CC1=NC(=N)N=C(C)C1N=Nc1ccc2nc(C)[nH]c2c1 (centres undefined) | > 100 | > 100 | – | > 100 | > 100 | > 100 | > 100 | > 100 µM | > 100 | > 100 | – | – | – | – | – | – | – | –
18 | COC(=O)c1c(O)ccc2c1c1c(n2Cc2ccc(OC)cc2)C(=O)c2ccccc2C1 | > 100 | > 100 | > 100 µM | > 100 | > 100 | 47.4 | 34.4 | – | > 100 | > 100 | – | – | – | – | – | – | – | –
19 | COc1ccccc1N=Nc1c(O)ccc2ccccc12 | – | > 100 | > 89.9 µM and 59.2 µM | > 100 | > 100 | > 100 | > 100 | 56.3 µM and 42.5 µM | > 100 | > 100 | – | – | – | 30.4 µM and 61.4 µM | – | – | – | –
20 | O=c1c2[nH]cnc2n(-c2ccccc2)c(=S)n1-c1ccccc1 | > 100 | > 100 | > 100 µM | > 100 | > 100 | > 100 | > 100 | – | > 100 | – | – | – | – | – | – | – | – | –
21 | CN(Cc1cnc2nc(N)nc(N)c2n1)c1ccc(C(=O)NC(CCC(=O)O)C(=O)O)c2ccccc12 (centres undefined) | > 1000 | > 1000 | > 1000 µM | > 1000 | > 1000 | > 1000 | – | > 1000 µM | > 1000 | > 1000 | > 1000 | > 1000 | – | – | > 1000 | – | > 1000 | –
